ChEMBL document CHEMBL4396916, “Novel potent substituted 4-amino-2-thiopyrimidines as dual VEGFR-2 and BRAF kinase inhibitors” (Eur J Med Chem, 2019)

Experiments:
[1] = biological target: Serine/threonine-protein kinase B-raf (Homo sapiens, UniProt P15056); test: Inhibition of human wild type BRAF by Kinase-Glo luminescence assay
[2] = biological target: Fibroblast growth factor receptor 1 (Homo sapiens, UniProt P11362); test: Inhibition of FGFR1 (unknown origin)
Angiopoietin-1 receptor = Angiopoietin-1 receptor (Homo sapiens, UniProt Q02763); test: Inhibition of TIE2 (unknown origin)
Chain of Angiopoietin-1 receptor (Q02763 whole entry): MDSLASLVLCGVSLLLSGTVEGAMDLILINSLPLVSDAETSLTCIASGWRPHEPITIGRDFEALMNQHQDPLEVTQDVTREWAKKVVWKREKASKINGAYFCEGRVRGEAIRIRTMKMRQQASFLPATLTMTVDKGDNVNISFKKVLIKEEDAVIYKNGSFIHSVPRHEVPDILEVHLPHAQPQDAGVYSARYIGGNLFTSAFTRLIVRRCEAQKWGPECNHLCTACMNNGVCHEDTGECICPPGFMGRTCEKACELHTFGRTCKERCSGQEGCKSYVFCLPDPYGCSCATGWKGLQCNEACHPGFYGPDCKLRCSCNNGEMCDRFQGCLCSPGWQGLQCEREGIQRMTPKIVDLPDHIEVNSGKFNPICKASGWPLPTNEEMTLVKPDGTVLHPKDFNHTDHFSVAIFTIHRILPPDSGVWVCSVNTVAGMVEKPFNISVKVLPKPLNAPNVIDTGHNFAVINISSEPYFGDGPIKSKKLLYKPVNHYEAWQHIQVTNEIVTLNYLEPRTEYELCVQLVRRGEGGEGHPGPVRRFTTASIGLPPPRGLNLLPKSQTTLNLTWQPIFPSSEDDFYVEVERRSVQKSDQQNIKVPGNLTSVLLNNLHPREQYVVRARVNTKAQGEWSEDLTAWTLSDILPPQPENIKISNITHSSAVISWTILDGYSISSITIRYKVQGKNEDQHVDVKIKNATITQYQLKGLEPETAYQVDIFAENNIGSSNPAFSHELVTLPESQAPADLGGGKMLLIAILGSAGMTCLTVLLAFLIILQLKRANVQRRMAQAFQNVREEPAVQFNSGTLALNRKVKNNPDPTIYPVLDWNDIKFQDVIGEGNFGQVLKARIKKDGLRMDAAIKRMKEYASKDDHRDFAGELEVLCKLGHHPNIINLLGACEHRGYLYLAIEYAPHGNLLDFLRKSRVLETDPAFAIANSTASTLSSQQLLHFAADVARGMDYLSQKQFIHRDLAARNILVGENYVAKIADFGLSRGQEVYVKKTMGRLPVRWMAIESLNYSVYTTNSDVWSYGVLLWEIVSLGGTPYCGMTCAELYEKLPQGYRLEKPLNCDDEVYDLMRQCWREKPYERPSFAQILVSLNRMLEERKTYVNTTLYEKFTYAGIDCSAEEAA

[3] = biological target: Mast/stem cell growth factor receptor Kit (Homo sapiens, UniProt P10721); test: Inhibition of c-kit (unknown origin)
Chain of Mast/stem cell growth factor receptor Kit (P10721 whole entry): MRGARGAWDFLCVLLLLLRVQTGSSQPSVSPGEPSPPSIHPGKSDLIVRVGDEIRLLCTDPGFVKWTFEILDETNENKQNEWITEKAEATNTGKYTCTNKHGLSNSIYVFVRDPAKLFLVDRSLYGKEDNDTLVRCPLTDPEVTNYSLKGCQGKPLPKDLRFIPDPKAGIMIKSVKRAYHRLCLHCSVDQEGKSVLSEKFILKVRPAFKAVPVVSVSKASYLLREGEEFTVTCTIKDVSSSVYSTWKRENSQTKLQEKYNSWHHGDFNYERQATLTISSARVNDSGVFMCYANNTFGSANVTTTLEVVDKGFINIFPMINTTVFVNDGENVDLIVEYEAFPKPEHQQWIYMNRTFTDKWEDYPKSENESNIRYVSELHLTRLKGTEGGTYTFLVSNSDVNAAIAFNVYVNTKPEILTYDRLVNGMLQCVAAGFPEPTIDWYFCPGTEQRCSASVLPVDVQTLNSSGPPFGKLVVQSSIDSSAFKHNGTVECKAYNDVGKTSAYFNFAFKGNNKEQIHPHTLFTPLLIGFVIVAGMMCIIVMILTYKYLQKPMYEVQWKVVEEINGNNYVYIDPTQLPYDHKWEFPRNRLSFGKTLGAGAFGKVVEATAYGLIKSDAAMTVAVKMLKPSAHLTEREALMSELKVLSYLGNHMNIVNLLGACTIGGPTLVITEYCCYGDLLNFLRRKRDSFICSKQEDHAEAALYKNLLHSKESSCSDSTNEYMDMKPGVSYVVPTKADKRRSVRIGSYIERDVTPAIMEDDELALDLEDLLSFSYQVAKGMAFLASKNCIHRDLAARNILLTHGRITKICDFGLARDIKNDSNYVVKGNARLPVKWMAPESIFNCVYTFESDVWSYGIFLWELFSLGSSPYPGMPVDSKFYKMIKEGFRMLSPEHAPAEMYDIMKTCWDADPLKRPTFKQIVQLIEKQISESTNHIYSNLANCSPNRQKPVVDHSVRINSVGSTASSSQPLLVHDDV

[4] = biological target: RAF proto-oncogene serine/threonine-protein kinase (Homo sapiens, UniProt P04049); test: Inhibition of RAF1 (unknown origin)
Chain of RAF proto-oncogene serine/threonine-protein kinase (P04049 whole entry): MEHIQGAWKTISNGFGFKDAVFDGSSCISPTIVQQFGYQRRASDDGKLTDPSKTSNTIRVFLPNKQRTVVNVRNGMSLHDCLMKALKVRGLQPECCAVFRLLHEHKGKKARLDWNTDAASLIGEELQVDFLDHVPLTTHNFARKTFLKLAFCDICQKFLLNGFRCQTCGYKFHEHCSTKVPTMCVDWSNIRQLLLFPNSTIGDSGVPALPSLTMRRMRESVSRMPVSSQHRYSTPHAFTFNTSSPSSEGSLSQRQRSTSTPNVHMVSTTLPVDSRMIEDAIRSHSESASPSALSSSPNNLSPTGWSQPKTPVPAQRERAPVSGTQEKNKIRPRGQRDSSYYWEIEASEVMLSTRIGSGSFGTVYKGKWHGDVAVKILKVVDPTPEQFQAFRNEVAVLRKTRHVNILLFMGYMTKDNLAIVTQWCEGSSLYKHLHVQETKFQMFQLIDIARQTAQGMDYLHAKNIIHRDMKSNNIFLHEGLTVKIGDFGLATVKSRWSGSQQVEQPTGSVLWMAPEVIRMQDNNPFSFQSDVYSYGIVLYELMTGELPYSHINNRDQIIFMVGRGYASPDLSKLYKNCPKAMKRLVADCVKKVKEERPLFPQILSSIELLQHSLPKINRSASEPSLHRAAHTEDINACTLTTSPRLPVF

CCRF-CEM = test: Growth inhibition of human CCRF-CEM cells at 10 uM incubated for 48 hrs by sulforhodamine B assay relative to control; type: functional; settings: read-out: GI
K562 = test: Growth inhibition of human K562 cells at 10 uM incubated for 48 hrs by sulforhodamine B assay relative to control; type: functional; settings: K562, 48 h, read-out: GI
MOLT-4 = test: Growth inhibition of human MOLT4 cells at 10 uM incubated for 48 hrs by sulforhodamine B assay relative to control; type: functional; settings: MOLT-4, 48 h, read-out: GI
RPMI-8226 = test: Growth inhibition of human RPMI8226 cells at 10 uM incubated for 48 hrs by sulforhodamine B assay relative to control; type: functional; settings: RPMI-8226, 48 h, read-out: GI
HOP-62 = test: Growth inhibition of human HOP62 cells at 10 uM incubated for 48 hrs by sulforhodamine B assay relative to control; type: functional; settings: HOP-62, 48 h, read-out: GI
NCI-H226 = test: Growth inhibition of human NCI-H226 cells at 10 uM incubated for 48 hrs by sulforhodamine B assay relative to control; type: functional; settings: NCI-H226, 48 h, read-out: GI
NCI-H23 = test: Growth inhibition of human NCI-H23 cells at 10 uM incubated for 48 hrs by sulforhodamine B assay relative to control; type: functional; settings: NCI-H23, 48 h, read-out: GI
NCI-H522 = test: Growth inhibition of human NCI-H522 cells at 10 uM incubated for 48 hrs by sulforhodamine B assay relative to control; type: functional; settings: NCI-H522, 48 h, read-out: GI
HCT-116 = test: Growth inhibition of human HCT116 cells at 10 uM incubated for 48 hrs by sulforhodamine B assay relative to control; type: functional; settings: HCT-116, 48 h, read-out: GI
SF-268 = test: Growth inhibition of human SF268 cells at 10 uM incubated for 48 hrs by sulforhodamine B assay relative to control; type: functional; settings: SF-268, 48 h, read-out: GI
SNB-19 = test: Growth inhibition of human SNB19 cells at 10 uM incubated for 48 hrs by sulforhodamine B assay relative to control; type: functional; settings: SNB-19, 48 h, read-out: GI
U-251 = test: Growth inhibition of human U251 cells at 10 uM incubated for 48 hrs by sulforhodamine B assay relative to control; type: functional; settings: U-251, 48 h, read-out: GI
LOX IMVI = test: Growth inhibition of human LOXIMVI cells at 10 uM incubated for 48 hrs by sulforhodamine B assay relative to control; type: functional; settings: read-out: GI
Malme-3M = test: Growth inhibition of human MALME-3M cells at 10 uM incubated for 48 hrs by sulforhodamine B assay relative to control; type: functional; settings: read-out: GI
MDA-MB-435 = test: Growth inhibition of human MDA-MB-435 cells at 10 uM incubated for 48 hrs by sulforhodamine B assay relative to control; type: functional; settings: MDA-MB-435, 48 h, read-out: GI
SK-MEL-2 = test: Growth inhibition of human SK-MEL-2 cells at 10 uM incubated for 48 hrs by sulforhodamine B assay relative to control; type: functional; settings: SK-MEL-2, 48 h, read-out: GI
UACC-257 = test: Growth inhibition of human UACC257 cells at 10 uM incubated for 48 hrs by sulforhodamine B assay relative to control; type: functional; settings: UACC-257, 48 h, read-out: GI
UACC-62 = test: Growth inhibition of human UACC62 cells at 10 uM incubated for 48 hrs by sulforhodamine B assay relative to control; type: functional; settings: UACC-62, 48 h, read-out: GI
OVCAR-4 = test: Growth inhibition of human OVCAR4 cells at 10 uM incubated for 48 hrs by sulforhodamine B assay relative to control; type: functional; settings: OVCAR-4, 48 h, read-out: GI
OVCAR-8 = test: Growth inhibition of human OVCAR8 cells at 10 uM incubated for 48 hrs by sulforhodamine B assay relative to control; type: functional; settings: OVCAR-8, 48 h, read-out: GI
NCI/ADR-RES = test: Growth inhibition of human NCI/ADR-RES cells at 10 uM incubated for 48 hrs by sulforhodamine B assay relative to control; type: functional; settings: read-out: GI
786-0 = test: Growth inhibition of human 786-0 cells at 10 uM incubated for 48 hrs by sulforhodamine B assay relative to control; type: functional; settings: 786-0, 48 h, read-out: GI
A498 = test: Growth inhibition of human A498 cells at 10 uM incubated for 48 hrs by sulforhodamine B assay relative to control; type: functional; settings: A498, 48 h, read-out: GI
ACHN = test: Growth inhibition of human ACHN cells at 10 uM incubated for 48 hrs by sulforhodamine B assay relative to control; type: functional; settings: read-out: GI
SN12C = test: Growth inhibition of human SN12C cells at 10 uM incubated for 48 hrs by sulforhodamine B assay relative to control; type: functional; settings: read-out: GI
UO-31 = test: Growth inhibition of human UO31 cells at 10 uM incubated for 48 hrs by sulforhodamine B assay relative to control; type: functional; settings: UO-31, 48 h, read-out: GI
PC-3 = test: Growth inhibition of human PC3 cells at 10 uM incubated for 48 hrs by sulforhodamine B assay relative to control; type: functional; settings: PC-3, 48 h, read-out: GI
DU-145 = test: Growth inhibition of human DU145 cells at 10 uM incubated for 48 hrs by sulforhodamine B assay relative to control; type: functional; settings: DU-145, 48 h, read-out: GI
MCF7 [5] = test: Growth inhibition of human MCF7 cells at 10 uM incubated for 48 hrs by sulforhodamine B assay relative to control; type: functional; settings: MCF7, 48 h, read-out: GI
T47D [6] = test: Growth inhibition of human T47D cells at 10 uM incubated for 48 hrs by sulforhodamine B assay relative to control; type: functional; settings: read-out: GI
MDA-MB-468 = test: Growth inhibition of human MDA-MB-468 cells at 10 uM incubated for 48 hrs by sulforhodamine B assay relative to control; type: functional; settings: MDA-MB-468, 48 h, read-out: GI
MCF7 [7] = test: Cytotoxicity against human MCF7 cells expressing VEGFR2 and wild type BRAF measured after 48 hrs by sulforhodamine B assay; type: functional, cell-based; settings: MCF7, 48 h
T47D [8] = test: Cytotoxicity against human T47D cells expressing wild type BRAF measured after 48 hrs by sulforhodamine B assay; type: functional, cell-based

Chain of Fibroblast growth factor receptor 1 (P11362 whole entry): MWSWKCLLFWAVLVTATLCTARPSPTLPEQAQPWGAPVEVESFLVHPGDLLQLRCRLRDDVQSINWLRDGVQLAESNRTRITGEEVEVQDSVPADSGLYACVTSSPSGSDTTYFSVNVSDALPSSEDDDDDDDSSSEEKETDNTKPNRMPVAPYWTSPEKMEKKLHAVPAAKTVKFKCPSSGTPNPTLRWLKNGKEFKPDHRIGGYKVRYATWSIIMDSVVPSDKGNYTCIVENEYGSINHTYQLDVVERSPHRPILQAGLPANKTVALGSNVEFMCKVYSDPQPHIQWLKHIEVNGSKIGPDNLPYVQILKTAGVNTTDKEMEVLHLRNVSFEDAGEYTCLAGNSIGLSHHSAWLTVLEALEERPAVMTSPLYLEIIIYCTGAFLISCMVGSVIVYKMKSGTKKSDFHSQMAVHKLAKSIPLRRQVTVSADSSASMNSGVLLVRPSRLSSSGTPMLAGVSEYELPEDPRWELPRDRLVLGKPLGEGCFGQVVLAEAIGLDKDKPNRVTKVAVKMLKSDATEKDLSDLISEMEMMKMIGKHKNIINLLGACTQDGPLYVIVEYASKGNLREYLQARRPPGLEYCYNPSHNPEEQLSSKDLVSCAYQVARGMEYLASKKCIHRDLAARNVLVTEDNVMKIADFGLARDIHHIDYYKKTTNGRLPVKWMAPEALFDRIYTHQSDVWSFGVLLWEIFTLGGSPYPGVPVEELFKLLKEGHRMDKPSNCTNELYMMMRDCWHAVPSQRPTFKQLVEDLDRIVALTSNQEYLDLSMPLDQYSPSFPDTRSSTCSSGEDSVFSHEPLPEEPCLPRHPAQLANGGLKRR
Chain of Serine/threonine-protein kinase B-raf (P15056 whole entry): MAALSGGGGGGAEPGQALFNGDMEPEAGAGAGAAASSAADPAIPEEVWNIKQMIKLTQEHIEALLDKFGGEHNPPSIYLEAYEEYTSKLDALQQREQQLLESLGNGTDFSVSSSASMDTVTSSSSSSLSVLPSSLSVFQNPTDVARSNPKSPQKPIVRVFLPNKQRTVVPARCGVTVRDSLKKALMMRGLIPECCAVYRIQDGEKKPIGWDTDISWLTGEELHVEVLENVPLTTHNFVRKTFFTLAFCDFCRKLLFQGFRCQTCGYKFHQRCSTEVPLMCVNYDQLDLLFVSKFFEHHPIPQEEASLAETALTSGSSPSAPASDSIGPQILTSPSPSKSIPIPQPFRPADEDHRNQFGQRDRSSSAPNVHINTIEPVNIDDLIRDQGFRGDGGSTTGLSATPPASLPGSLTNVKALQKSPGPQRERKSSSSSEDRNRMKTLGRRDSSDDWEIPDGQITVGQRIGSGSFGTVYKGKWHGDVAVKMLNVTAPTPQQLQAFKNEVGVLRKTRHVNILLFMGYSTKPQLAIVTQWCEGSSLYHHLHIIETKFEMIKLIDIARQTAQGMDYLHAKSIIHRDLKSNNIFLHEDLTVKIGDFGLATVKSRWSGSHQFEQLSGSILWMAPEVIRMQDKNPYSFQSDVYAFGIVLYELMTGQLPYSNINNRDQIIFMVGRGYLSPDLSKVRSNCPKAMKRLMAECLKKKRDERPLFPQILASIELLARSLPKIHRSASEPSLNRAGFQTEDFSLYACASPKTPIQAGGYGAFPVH

Structure (SMILES)	IC50 [1]	IC50 [2]	IC50 (Angiopoietin-1 receptor)	IC50 [3]	IC50 [4]	inhibition of growth at 10 µM (CCRF-CEM)	inhibition of growth at 10 µM (K562)	inhibition of growth at 10 µM (MOLT-4)	inhibition of growth at 10 µM (RPMI-8226)	inhibition of growth at 10 µM (HOP-62)	inhibition of growth at 10 µM (NCI-H226)	inhibition of growth at 10 µM (NCI-H23)	inhibition of growth at 10 µM (NCI-H522)	inhibition of growth at 10 µM (HCT-116)	inhibition of growth at 10 µM (SF-268)	inhibition of growth at 10 µM (SNB-19)	inhibition of growth at 10 µM (U-251)	inhibition of growth at 10 µM (LOX IMVI)	inhibition of growth at 10 µM (Malme-3M)	inhibition of growth at 10 µM (MDA-MB-435)	further results
O=C(CSc1nccc(Nc2ccc(N3CCOCC3)cc2)n1)c1ccc(F)cc1	110 nM	130 nM	480 nM	250 nM	130 nM	19%	28%	25%	21%	69%	45%	21%	49%	32%	35%	37%	16%	15%	29%	16%	inhibition of growth at 10 µM (SK-MEL-2): 10%; inhibition of growth at 10 µM (UACC-257): 19%; inhibition of growth at 10 µM (UACC-62): 28%; inhibition of growth at 10 µM (OVCAR-4): 57%; inhibition of growth at 10 µM (OVCAR-8): 62%; inhibition of growth at 10 µM (NCI/ADR-RES): 26%; inhibition of growth at 10 µM (786-0): 13%; inhibition of growth at 10 µM (A498): 36%; inhibition of growth at 10 µM (ACHN): 24%; inhibition of growth at 10 µM (SN12C): 20%; inhibition of growth at 10 µM (UO-31): 27%; inhibition of growth at 10 µM (PC-3): 27%; inhibition of growth at 10 µM (DU-145): 16%; inhibition of growth at 10 µM (MCF7 [5]): 31%; inhibition of growth at 10 µM (T47D [6]): 34%; inhibition of growth at 10 µM (MDA-MB-468): 38%; IC50 (MCF7 [7]): 26900 nM; IC50 (T47D [8]): 14400 nM
CCOC(=O)c1ccc(Nc2ccnc(SCC(=O)c3ccc(C#N)cc3)n2)cc1	150 nM	280 nM	1390 nM	5160 nM	410 nM	82%	49%	84%	80%	37%	38%	20%	73%	28%	22%	10%	15%	20%	19%	32%	inhibition of growth at 10 µM (SK-MEL-2): 29%; inhibition of growth at 10 µM (UACC-257): 22%; inhibition of growth at 10 µM (UACC-62): 61%; inhibition of growth at 10 µM (OVCAR-4): 35%; inhibition of growth at 10 µM (OVCAR-8): 77%; inhibition of growth at 10 µM (NCI/ADR-RES): 58%; inhibition of growth at 10 µM (786-0): 22%; inhibition of growth at 10 µM (A498): 50%; inhibition of growth at 10 µM (ACHN): 20%; inhibition of growth at 10 µM (SN12C): 26%; inhibition of growth at 10 µM (UO-31): 52%; inhibition of growth at 10 µM (PC-3): 60%; inhibition of growth at 10 µM (DU-145): 21%; inhibition of growth at 10 µM (MCF7 [5]): 33%; inhibition of growth at 10 µM (T47D [6]): 90%; inhibition of growth at 10 µM (MDA-MB-468): 52%; IC50 (MCF7 [7]): 13000 nM; IC50 (T47D [8]): 2180 nM
